Patent US7629317B2, “Control of growth and repair of gastro-intestinal tissues by gastrokines and inhibitors” (The University of Chicago, priority 2001, dated 2009)
Entries after “also recorded” stand apart in the source; their conditions may differ.

How the values were obtained:
[1] = test system: AGS cells; assay: Growth of gastric epithelial AGS cells (cell count four days later); assay type: cell-based, human; settings: for growth stimulation of AGS cells (in words): peptide 77-97 8 μg/ml, EGF 50 ng/ml at saturating doses
Experimental: (§1) To characterize the capacity of gastric and intestinal cells to respond to AMP-18, AGS gastric adenocarcinoma cells, HAE human gastric antrum mucosa primary cultures transformed with SV40 large T antigen, rat diploid small intestinal epithelial cells of the IEC-6 (FIG. 15) and IEC-18 lines, NCI N-87 gastric carcinoma cells, and SK-GT5 gastroesophageal adenocarcinoma cells were studied; human WI-38 fibroblasts and HeLa cells served as non-GI control cell lines. Mitogenesis was assayed by performing cell counts 3 to 4 days after exposing cells to the agent of interest, trypsinizing the culture to prepare single cells, and confirming this while counting them in a hemocytometer.

[2] = test system: BSC-1 epithelial cell line; assay: Growth (mitogenesis) assay on confluent BSC-1 cells, cells counted 4 days later; assay type: cell-based, monkey; settings: for antagonism of the activity of peptide 78-119: inactive overlapping peptide with the mitogenic 42-mer; for antagonism of the activity of peptide 104-117: inactive peptide with the mitogenic 14-mer; for K1/2; concentration for half-maximal growth stimulation / EC50: synthetic peptides of Table 1; for mitogenic activity (in words): compared with related peptides; for EC50: read-out: K1/2, concentration for half-maximal growth stimulation
From the text: Finding that a 42-amino acid peptide representing a central region of the novel antrum mucosal cell protein AMP-18 had mitogenic activity similar in character to that of the intact protein in pig and mouse antrum extracts (Table 1), has facilitated the characterization of the bio-active region of the molecule. […] Growth activity determinations have so far been accomplished with the kidney epithelial cell line as well as several gastric and intestinal lines.
Non-transformed monkey kidney epithelial cell line BSC-1 and other epithelial cell lines were used to assess effects on growth. In general, conditions were chosen for each line such that cells are grown to confluence in plastic dishes in supplemented growth medium with minimal calf (or fetal) serum for growth (Lieske et al., 1997); BSC-1 cells become confluent at 10^6/60 mm dish with 1% calf serum. At the start of the growth assay the medium on the confluent culture was aspirated and replaced with fresh medium with minimal serum to maintain viability (0.01% for BSC-1) cells. AMP-18 preparations were added to the culture medium and 4 days later the cell monolayer was rinsed, detached with trypsin, and the cells were counted using a hemocytometer. Determination of the capacity of AMP-18 to initiate DNA synthesis was measured by the incorporation of [^3H]thymidine (Toback, 1980); to confirm the DNA synthesis assay, autoradiograms of leveled cells were counted (Kartha and Toback, 1985).

[3] = test system: IEC-18 cells; assay: Growth of confluent cultures of IEC-18 cells (cell count); assay type: cell-based, rat
Experimental: Confluent cultures of IEC-18 cells were prepared. One day later, medium was aspirated and replaced with 5 ml of DMEM containing CS (0.5%) and insulin, without (control) or with mitogenic peptide 58-99 (8 μg/ml). Sister plates receiving 1 ml medium and different amounts of peptide 67-85 were incubated at 1 hr at 38° C. on a CO2 incubator, and then an additional 4 ml of medium was added to each dish. Peptide 58-99 was added to 2 of the 4-sister plates at each concentration of peptide 67-85, and the number of cells was counted. […] Stimulation of cell growth by mitogenic peptide 58-99 was completely abolished by preincubation of cells with 0.25 μg/ml of peptide 67-85. […] Values for the number of cells per culture are shown relative to multiplication of cells exposed to the vehicle during the same period.
Urea (6 M) was employed to release proteins from the insoluble fraction solubilize rhAMP-18 containing the His6-tag (SEQ ID NO: 16), and make it available to bind to the Ni^2+-charged resin from which it was subsequently eluted with a gradient of imidazole (0 to 200 mM). The amount of eluted rhAMP-18 was measured using the BCA assay, and the appearance of a single band at the predicted size of 19-20 kD was confirmed by SDS-PAGE followed by immunoblotting. To determine if eluted rhAMP-18 renatured to assume a structure that was mitogenic, aliquots of the eluate (following removal of urea and imidazole by dialysis) were added to cultures of IEC-18 cells and the number of cells was counted 4 days later. […] AMP peptide 77-97 refers to the mature protein; same as peptide 97-117 of human precursor protein: Table 1. These observations indicate that biologically active recombinant human AMP-18 that can be utilized in diverse clinical situations is available. The mitogenic potency of rhAMP-18 is in the nanomolar range which would be expected for a native gastric cell growth factor that participates in the maintenance and repair of the stomach in vivo.
as §1

[4] = test system: Helicobacter pylori; assay: Growth inhibition on a bacterial lawn (filter diffusion); assay type: cell-based; settings: solution on filter
Experimental: To determine if AMP peptide inhibits growth of H. pylori, a lawn of bacteria was prepared on a culture dish. A small circular filter was placed in the center of the dish, a solution of a test agent was placed on the filter so it diffused onto the lawn, and its effect on bacterial growth around the filter was measured. AMP peptide 77-97 (SEQ ID NO: 12) (Table 1), a scrambled version of this AMP peptide (negative control) (SEQ ID NO: 19), or the antibiotic clarithromycin (positive control) was added to a filter on different cultures. […] In addition, AMP peptide could serve as a therapeutic agent to treat H. pylori infections in the stomach, and thereby prevent the capacity of this organism to cause gastritis, gastric ulcers, and gastric adenocarcinomas.

[5] = test system: occludin, ZO-1, ZO-2, claudin-5, E-cadherin, JAM; assay: Accumulation of tight and adherens junction proteins in C2 cells (immunoblot of insoluble fraction, confocal microscopy); assay type: cell-based, human; settings: 8 hr; peptides 8 μg/ml, EGF 50 ng/ml
Experimental: To find out how the peptide exerts its cytoprotective effect, C2 cell monolayers were treated with AMP peptide, and oxidant injury was induced with monochloramine 18 hours later. Changes in the levels of specific tight junction (TJ) proteins were checked. Cells were lysed, and proteins of the insoluble/particulate fraction were studied by immunoblotting. […] This observation represents the first evidence that AMP peptide enhances accumulation of specific TJ proteins in colonic epithelial cells. […] To carry out this experiment, C2 cells were exposed to AMP peptide for different periods of time, the NP-40-insoluble fraction was obtained, Western blots were prepared, and the amount of each immunoreactive protein was quantified. A 65% increase in immunoreactivity of each protein compared to control was detected for occludin after 2 hr, and for ZO-1 at 8 hr. Hsc73, which is constitutively expressed in these cells, was not altered by exposure to AMP peptide for up to 18 hr.
Confluent monolayers of C2 cells were treated with AMP peptide or vehicle for 8 hr. Cells were then collected, proteins in the NP-40-insoluble fraction were separated by SDS-PAGE, immunoblots were prepared, and the relative amounts of immunoreactive proteins were compared by densitometric analysis. […] These changes appear relatively specific for occludin, ZO-1, ZO-2, claudin-5, E-cadherin, and JAM because they were not observed for several other proteins localized in the TJ (claudin-1, claudin-2), adherens junction (β-catenin), plasma membrane (Na-K-2Cl cotransporter, α or β subunit of Na-K-ATPase), or cytosol (Rho A, hsc73).
To better understand the mechanism(s) by which AMP peptide enhances accumulation of TJ-associated proteins, experiments were performed to determine whether the peptide exerted its effect at the apical or basolateral surface of C2 cells. Monolayers of C2 cells were grown on Transwell filters, AMP peptide (8:g/ml) was added to the apical or basolateral compartment of the Transwell, and cells were harvested 8 hr later. The NP-40-insoluble fraction was obtained, its proteins separated, and immunoblots were prepared.

With KKEVMPSIQSLDALVKEKK [87–105] the “inhibition of growth stimulation by peptide 58-99” value [1] was “completely inhibits”, the “growth stimulation of AGS cells (in words)” value [1] was “not stimulated” and the “antagonism of the activity of the protein in stomach extracts” value [2] was “block”. The “antagonism of the activity of peptide 78-119” value [2] was “block; also recorded: antagonize”, the “antagonism of the activity of peptide 104-117” value (from here on “antagonism … of peptide 104-117”) ([2]; listed as peptide 87-105) was “blocks; also recorded: antagonizes” and the “K1/2; concentration for half-maximal growth stimulation” value (“K1/2; concentration” below) [2] was “Inactive”. The “concentration nearly abolishing growth-stimulatory effect of peptide 58-99” value ([3]; FIG. 17) was ~0.1 µg/mL and the “concentration completely abolishing growth stimulation by peptide 58-99” value ([3]; preincubation of cells, peptide 58-99 8 μg/ml) was 0.25 µg/mL.

LDALVKEKKLQGKGPGGPPPKGLMY [97–121] was tested, and the “mitogenic activity (in words)” value [2] was “more active” and the EC50 [2] was 200 nM.

With `CC[C@H]1OC(=O)[C@H](C)[C@@H](O[C@H]2C[C@@](C)(OC)[C@@H](O)[C@H](C)O2)[C@H](C)[C@@H](O[C@@H]2O[C@H](C)C[C@H](N(C)C)[C@H]2O)[C@](C)(OC)C[C@@H](C)C(=O)[C@H](C)[C@@H](O)[C@]1(C)O` [clarithromycin] the “growth of H. pylori lawn” value [4] was “inhibited growth”.

GPGG [110–113] was tested, and the “K1/2; concentration” value [2] was “Inactive”.

In the case of “GKPLGQPGKVPKLDGKEPLAK [97–117**, scrambled version of AMP peptide 77-97, negative control, reference compound]”, the “growth stimulation of AGS cells (in words)” value [1] is reported as “not stimulated”, the “growth of H. pylori lawn” value ([4]; listed as scrambled AMP peptide) is reported as “not” and the “growth of H. pylori lawn” value ([4]; listed as scrambled peptide) is reported as “did not inhibit growth”. The “accumulation of occludin and ZO-1 (specificity)” value [5] was “not replicated”, the “growth stimulation of BSC-1 cells” value ([2]; concentrations up to 8 μg/ml) was “did NOT stimulate growth” and the “growth stimulation of IEC-18 cells (in words)” value ([3]; added alone, peptides up to 8 μg/ml) was “did NOT stimulate growth”.

Work on KKLQGK [104–109] yielded an EC50 [2] of 7400 nM.

For “KKTCIVHKMKKEVMPSIQSLDALVKEKKLQGKGPGGPPPKGL [78–119, 42 amino acid peptide of human preAMP-18, peptide 58-99 of the mature protein]”, the “mitogenic activity (in words)” value [2] was “good mitogenic activity”, the EC50 [2] was 300 nM and the “increase in cell number” value ([3]; 3 days, peptide 58-99 8 μg/ml, EGF 50 ng/ml, vehicle 290%) was 407%.

In the case of KKLQGKGPGGPPPKGLMY [104–111], the “mitogenic activity (in words)” value [2] is reported as “slightly less activity” and the EC50 [2] is reported as 1000 nM.

KGPGGPPPK [109–117] showed an EC50 [2] of 2500 nM.

With KKTCIVHKMKK [78–88] the “antagonism of the activity of the protein in stomach extracts” value [2] was “block”, the “antagonism of the activity of peptide 78-119” value [2] was “block; also recorded: antagonize” and the “antagonism … of peptide 104-117” value ([2]; listed as 68-88) was “NOT”. For the same molecule, the “antagonism … of peptide 104-117” value ([2]; listed as peptide 78-88) was “does not” and the “K1/2; concentration” value [2] was “Inactive”.

“LDTMVKEQK . . . GKGPGGAPPKDLMY (LDTMVKEQKGKGPGGAPPKDLMY) [97–119]” gave an EC50 [2] of 200 nM.

“KKLQGKGPGGPPPK [104–117, 14 amino acid mitogenic domain]” was tested, and the “activity relative to the 42-amino acid peptide” value ([2]; from the higher K1/2 value) was 30-40% and the EC50 [2] was 800 nM.

B1: intact AMP protein: the intact, natural gastrokine AMP-18 protein of antrum mucosa (protein)
chain: YTVNINGNDGNVDGSGQQSVSINGVHNVANIDNNNGWDSWNSLWDYENSFAATRLFSKKSCIVHRMNKDAMPSLQDLDTMVKEQKGKGPGGAPPKDLMYSVNPTRVEDLNTFGPKIAGMCRGIPTYVAEEIPGPNQPLYSKKCYTADILWILRMSFCGTSVETY
For B1, the “estimate for the activity of the intact AMP protein” value ([2]; estimate) was 1 to 10 nM.
